In patent US9206130B2, “Quinoline derivatives as AXL kinase inhibitors” (Max-Planck-Gesellschaft zur Förderung der Wissenschaften …, priority 2008, dated 2015):
Structures can show the parent of a compound that is named as a salt.

How the values were obtained:
[1] = target: T1, wild type AXL (wtAXL) receptor tyrosine kinase (Homo sapiens, UniProt P30530); test: NIH-3T3-AXL cellular tyrosine kinase assay (inhibition of AXL phosphorylation); assay type: cell-based; conditions: AXL phosphorylation in NIH-3T3-AXL (clone 22) cells, serum-depleted, 2 h with compound, immunoprecipitation / anti-phosphotyrosine blot
T1 construct: WtAXL cDNA was cloned into vector pLXSN(ESK) and transfected into Phoenix E packaging cells; expressed in transfected cells; host or cells: NIH3T3 N7 mouse fibroblasts, retrovirally infected (clone 22)
T1 sequence (P30530 26-894): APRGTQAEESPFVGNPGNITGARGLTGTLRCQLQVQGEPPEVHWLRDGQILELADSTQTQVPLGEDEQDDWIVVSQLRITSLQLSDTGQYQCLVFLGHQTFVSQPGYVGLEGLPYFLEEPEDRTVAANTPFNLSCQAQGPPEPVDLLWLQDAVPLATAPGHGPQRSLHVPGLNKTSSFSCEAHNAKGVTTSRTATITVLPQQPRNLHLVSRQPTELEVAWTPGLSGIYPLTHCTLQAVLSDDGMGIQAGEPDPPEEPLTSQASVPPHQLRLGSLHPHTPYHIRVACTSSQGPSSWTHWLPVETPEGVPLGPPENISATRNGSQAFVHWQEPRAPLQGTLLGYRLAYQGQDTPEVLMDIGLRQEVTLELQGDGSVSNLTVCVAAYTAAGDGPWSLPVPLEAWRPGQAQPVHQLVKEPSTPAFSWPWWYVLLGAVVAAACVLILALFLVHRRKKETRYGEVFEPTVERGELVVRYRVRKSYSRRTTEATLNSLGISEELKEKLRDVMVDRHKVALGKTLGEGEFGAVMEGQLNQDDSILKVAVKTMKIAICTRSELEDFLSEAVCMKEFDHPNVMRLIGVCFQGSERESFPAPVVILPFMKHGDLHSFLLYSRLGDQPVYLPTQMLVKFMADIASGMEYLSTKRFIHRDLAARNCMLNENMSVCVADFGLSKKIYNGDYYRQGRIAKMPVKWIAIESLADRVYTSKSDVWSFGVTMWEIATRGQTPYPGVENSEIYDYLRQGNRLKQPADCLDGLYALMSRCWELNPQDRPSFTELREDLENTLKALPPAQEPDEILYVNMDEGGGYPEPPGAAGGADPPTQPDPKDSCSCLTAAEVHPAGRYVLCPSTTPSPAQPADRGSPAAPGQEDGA
Experimental: 3) Inhibitory Activity of Compounds on Axl Phosphorylation in NIH-3T3-AXL Cellular Tyrosine Kinase Assay
The viral supernatant was collected and used to infect target cells NIH3T3 N7. Monoclonal NIH3T3-AXL cell lines stably expressing wtAXL were generated by selecting retrovirally infected cells in medium containing puromycin (2 μg/ml) and subsequent clonal separation.
NIH-3T3-AXL Cellular Kinase Assay
Serial dilutions of compounds were added, and the cells were further incubated or 2 h. […] The clarified cell lysate (10 min at 13000 rpm at 4° C.) were used for immunoprecipitation. Equal amounts of protein were mixed with 2 μg anti-AXL polyclonal antibody (homemade) and 20 μl Protein A sepharose beads, and rotated for 6 hr at 4° C. After immunoprecipitation, the beads were washed three times with 1×HNTG (50 mM HEPES (pH 7.5), 150 mM NaCl, 10% Glycerol, 0.2% Triton X-100). The final pellet was suspended in 20 μl 2× Laemmli buffer, and boiled for 5 min at 100° C. […] The membrane was then incubated with anti-phosphotyrosine antibody (4G10) overnight at 4° C. followed by washing with 1×TBST buffer three times. After incubating membrane with HRP-conjugated anti-mouse secondary antibody for 1 hour at room temperature followed by washing with 1×TBST buffer three times, the proteins were visualized by ECL.

IC50 [1] [nM] | melting point [°C] | SMILES
> 1000 | 211 to 212 | COc1ccc(S(=O)(=O)Nc2ccc(Oc3ccnc4cc(OC)c(OC)cc34)cc2)cc1Br [Example A74, 3-Bromo-N-[4-(6,7-dimethoxy-quinolin-4-yloxy)-phenyl]-4-methoxy-benzenesulfonamide]
42 | 117 to 119 | COc1cc2c(Oc3ccc(NS(=O)(=O)c4c(F)cccc4F)cc3F)ccnc2cc1OCCCN1CCCC(C)C1 (stereo not shown) [Example D32, 2,6-Difluoro-N-(3-fluoro-4-{6-methoxy-7-[3-(3-methyl-piperidin-1-yl)-propoxy]-quinolin-4-yloxy}-phenyl)-benzenesulfonamide]
4700 | 218 to 220 | COc1cc2nccc(Oc3ccc(NS(=O)(=O)c4ccc(C)s4)c(F)c3)c2cc1OC [Example A21, 5-Methyl-thiophene-2-sulfonic acid [4-(6,7-dimethoxy-quinolin-4-yloxy)-2-fluoro-phenyl]-amide]
> 10000 | 242 to 244 | Cc1cc(Oc2ccc(NS(=O)(=O)c3csc4ccccc34)c(F)c2)c2cccc(C(F)(F)F)c2n1 [Example C18, Benzo[b]thiophene-3-sulfonic acid [2-fluoro-4-(2-methyl-8-trifluoromethyl-quinolin-4-yloxy)phenyl]-amide]
150 | 175 to 177 | COc1cc2c(Oc3ccc(NS(=O)(=O)c4ccccc4Br)cc3F)ccnc2cc1OCCN1CCOCC1 [Example D26, 2-Bromo-N-{3-fluoro-4-[6-methoxy-7-(2-morpholin-4-yl-ethoxy)-quinolin-4-yloxy]-phenyl}-benzenesulfonamide]
> 10000 | 167 to 171 | COc1cc2nccc(Oc3ccc(NS(=O)(=O)c4ccc(-c5ccccc5)cc4)cc3F)c2cc1OC [Example A107, Biphenyl-4-sulfonic acid [4-(6,7-dimethoxy-quinolin-4-yloxy)-3-fluoro-phenyl]-amide]
> 10000 | 236 to 238 | COc1cc2nccc(Oc3ccc(NS(=O)(=O)c4ccc(C(F)(F)F)cc4Br)c(F)c3)c2cc1OC [Example A45, 2-Bromo-N-[4-(6,7-dimethoxy-quinolin-4-yloxy)-2-fluoro-phenyl]-4-trifluoromethyl-benzenesulfonamide]
700 | 214 to 216 | COc1cc(S(=O)(=O)Nc2ccc(Oc3ccnc4cc(OC)c(OC)cc34)cc2F)ccc1F [Example A61, N-[4-(6,7-Dimethoxy-quinolin-4-yloxy)-2-fluoro-phenyl]-4-fluoro-3-methoxy-benzenesulfonamide]
> 3000 | 207 to 209 | COc1cc2nccc(Oc3ccc(NS(=O)(=O)c4ccccc4OC(F)(F)F)cc3C)c2cc1OC [Example A129, N-[4-(6,7-Dimethoxy-quinolin-4-yloxy)-3-methyl-phenyl]-2-trifluoromethoxy-benzenesulfonamide]
> 10000 | 167 to 168 | Cc1cc(Oc2ccc(NS(=O)(=O)c3cccc(Oc4ccccc4)c3)c(F)c2)c2cccc(C(F)(F)F)c2n1 [Example C03, N-[2-Fluoro-4-(2-methyl-8-trifluoromethyl-quinolin-4-yloxy)-phenyl]-3-phenoxy-benzenesulfonamide]
820 | 145 to 147 | COc1cc2nccc(Oc3ccc(NS(=O)(=O)c4ccc(OC)c5ccccc45)cc3F)c2cc1OC [Example A135, 4-Methoxy-naphthalene-1-sulfonic acid [4-(6,7-dimethoxy-quinolin-4-yloxy)-3-fluoro-phenyl]-amide]
540 | 109 to 111 | COc1cc2nccc(Oc3ccc(NS(=O)(=O)c4cccc(-c5ccccc5)c4)cc3F)c2cc1OC [Example A97, Biphenyl-3-sulfonic acid [4-(6,7-dimethoxy-quinolin-4-yloxy)-3-fluoro-phenyl]-amide]
> 10000 | 187 to 188 | Cc1cc(Oc2ccc(NS(=O)(=O)c3cccc(-c4ccccc4)c3)c(F)c2)c2cccc(C(F)(F)F)c2n1 [Example C02, Biphenyl-3-sulfonic acid [2-fluoro-4-(2-methyl-8-trifluoromethyl-quinolin-4-yloxy)-phenyl]-amide]
2800 | 186 to 188 | COc1cc2nccc(Oc3ccc(NS(=O)(=O)c4ccc(-c5ccccc5)s4)c(F)c3)c2cc1OC [Example A36, 5-Phenyl-thiophene-2-sulfonic acid [4-(6,7-dimethoxy-quinolin-4-yloxy)-2-fluoro-phenyl]-amide]
> 3000 | 229 to 231 | COc1cc2nccc(Oc3ccc(NS(=O)(=O)c4cccc5cnccc45)cc3)c2cc1OC [Example A78, Isoquinoline-5-sulfonic acid [4-(6,7-dimethoxy-quinolin-4-yloxy)-phenyl]-amide]
> 10000 | 182 to 184 | Cc1cc(Oc2ccc(NS(=O)(=O)c3cc4ccccc4s3)c(F)c2)c2cccc(C(F)(F)F)c2n1 [Example C17, Benzo[b]thiophene-2-sulfonic acid [2-fluoro-4-(2-methyl-8-trifluoromethyl-quinolin-4-yloxy)-phenyl]-amide]
300 | 212 to 214 | COc1cc2c(Oc3ccc(NS(=O)(=O)c4ccc(Cl)cc4F)cc3F)ccnc2cc1OCCN1CCOCC1 [Example D12, 4-Chloro-2-fluoro-N-{3-fluoro-4-[6-methoxy-7-(2-morpholin-4-yl-ethoxy)-quinolin-4-yloxy]-phenyl}-benzenesulfonamide]
> 1000 | 202 to 204 | COc1cc(S(=O)(=O)Nc2ccc(Oc3ccnc4cc(OC)c(OC)cc34)c(F)c2)ccc1F [Example A109, N-[4-(6,7-Dimethoxy-quinolin-4-yloxy)-3-fluoro-phenyl]-4-fluoro-3-methoxy-benzenesulfonamide]
> 10000 | 228 to 230 | COc1cc2nccc(Oc3ccc(NS(=O)(=O)c4ccc(-c5ccccc5)cc4)c(C)c3)c2cc1OC [Example A92, Biphenyl-4-sulfonic acid [4-(6,7-dimethoxy-quinolin-4-yloxy)-2-methyl-phenyl]-amide]
695 |  | COc1cc2c(Oc3ccc(NS(=O)(=O)c4cccc5ccccc45)cc3F)ccnc2cc1OCCCN [Example D02, Naphthalene-1-sulfonic acid {4-[7-(3-amino-propoxy)-6-methoxy-quinolin-4-yloxy]-3-fluoro-phenyl}-amide hydrochloride]
364 |  | COc1cc2c(Oc3ccc(NS(=O)(=O)c4ccccc4OC(F)(F)F)cc3F)ccnc2cc1OCCCN [Example D15, N-{4-[7-(3-Amino-propoxy)-6-methoxy-quinolin-4-yloxy]-3-fluoro-phenyl}-2-trifluoromethoxy-benzenesulfonamide hydrochloride]
> 10000 |  | COc1cc2nccc(Oc3ccc(NS(=O)(=O)c4ccc(Cl)cc4F)cc3OC)c2cc1OC [Example A141, 4-Chloro-N-[4-(6,7-dimethoxy-quinolin-4-yloxy)-3-methoxy-phenyl]-2-fluoro-benzenesulfonamide]
837 |  | COc1cc2c(Oc3ccc(NS(=O)(=O)c4cccc(-c5ccccc5)c4)cc3F)ccnc2cc1OCCCN [Example D03, Biphenyl-3-sulfonic acid {4-[7-(3-amino-propoxy)-6-methoxy-quinolin-4-yloxy]-3-fluoro-phenyl}-amide hydrochloride]
 | 190 to 192 | COc1cc2c(Oc3ccc(NS(=O)(=O)c4cccc(-c5ccccc5)c4)cc3F)ccnc2cc1OCCCN1CCCC(C)C1 (stereo not shown) [Example D37, Biphenyl-3-sulfonic acid (3-fluoro-4-{6-methoxy-7-[3-(3-methyl-piperidin-1-yl)-propoxy]-quinolin-4-yloxy}-phenyl)-amide]
